Assay [1] deals with chloroform-induced arrhythmia. The assay can be described thus: inhibition of chloroform-induced arrhythmia in the mouse (J. W. Lawson method). Conditions: ip, intraperitoneal administration, read-out: ED50, prevention of chloroform-induced arrhythmia. The class given is in vivo. From the text: 2. In the mouse, another in vivo test involves the inhibition of chloroform-induced arrhythmia according to the method of J. W. Lawson, Journal of Pharmacology and Experimental Therapeutics, 160, 22 (1968).

For the next assay, the system named is rabbit atrium. In words: in vitro rabbit atrium test, steady state refractory period. The following applies: rabbit left atrium, Chenoweth's solution, 30° C., stimulated at 30/minute, five minute interval. How it is done: 3. […] In this test, the left atrium is placed in Chenoweth's solution warmed to 30° C. and irrigated with 95% oxygen:5% carbon dioxide. The lower end of the atrium is attached to a small hook fixed in the bath and the upper end is connected to a transducer to record contractile activity. The atrium is electrically stimulated at a basic rate of 30/minute by employing square wave pulses of 10 millisecond duration at 1.2 to 1.5 times threshold voltage. A test compound is introduced into the bath and the test repeated after a five minute interval. A dose-response relationship is obtained with additional doses of the test compound. […] This value is designated the EC50.

By ED50 is commonly meant the dose at which the effect has come halfway, by size or by number of responders.

Each structure is given as a SMILES string.

As for `CN1CCCCC1CCc1ccccc1NC(=O)Nc1ccccc1` (stereo not drawn) [Example 1, 2-[2-(1-Methyl-2-piperidinyl)ethyl]carbanilide], the ED50 in assay [1] came to 23 mg/kg. Besides, in the assay on rabbit atrium, the “EC50 (effective concentration which reduces to 50% the maximal increase in the steady state refractory period of the atrium)” value is 1.5 µg/mL.
Regarding `COc1ccc(C(=N)Nc2ccccc2CCC2CCCCN2C)cc1` (stereo not drawn) [Example 15, N-[2-[2-(1-Methyl-2-piperidinyl)ethyl]phenyl]-p-anisamidine], the “EC50 (effective concentration which reduces to 50% the maximal increase in the steady state refractory period of the atrium)” value with rabbit atrium worked out at 10 µg/mL.
Regarding `COc1ccc(NC(=O)Nc2ccccc2CCC2CCCCN2C)cc1` (stereo not drawn) [Example 2, 4'-Methoxy-2-[2-(1-methyl-2-piperidinyl)ethyl]carbanilide], the median effective dose (ED50) in assay [1] amounted to 46 mg/kg. Moreover, the “EC50 (effective concentration which reduces to 50% the maximal increase in the steady state refractory period of the atrium)” value in the assay with rabbit atrium is 29 µg/mL.
For `CN1CCCCC1CCc1ccccc1NC(=S)Nc1ccccc1` (stereo not drawn) [Example 9, 2-[2-(1-Methyl-2-piperidinyl)ethyl]thiocarbanilide], the “EC50 (effective concentration which reduces to 50% the maximal increase in the steady state refractory period of the atrium)” value in the assay with rabbit atrium was 5.9 µg/mL.

These data come from patent US4399286A, “Antiarrhythmic phenethylpiperidine compounds” (Mead Johnson & Company, priority 1981, dated 1983).
